From patent US20250296934A1, “AZEPINOINDOLES AND METHODS OF PREPARATION THEREOF” (priority 2022, published 2025)
Where two headings read alike, the source gives them in different places.

Tests used:
5-HT2C = target: T1, 5-HT2C (Homo sapiens, UniProt P28335); experiment: cell-based; format: cell-based; parameters: expressed in transfected cells; host or cells: HEK293T; settings: for EC50: Gq dissociation BRET, HEK293T
T1 sequence (P28335 33-458): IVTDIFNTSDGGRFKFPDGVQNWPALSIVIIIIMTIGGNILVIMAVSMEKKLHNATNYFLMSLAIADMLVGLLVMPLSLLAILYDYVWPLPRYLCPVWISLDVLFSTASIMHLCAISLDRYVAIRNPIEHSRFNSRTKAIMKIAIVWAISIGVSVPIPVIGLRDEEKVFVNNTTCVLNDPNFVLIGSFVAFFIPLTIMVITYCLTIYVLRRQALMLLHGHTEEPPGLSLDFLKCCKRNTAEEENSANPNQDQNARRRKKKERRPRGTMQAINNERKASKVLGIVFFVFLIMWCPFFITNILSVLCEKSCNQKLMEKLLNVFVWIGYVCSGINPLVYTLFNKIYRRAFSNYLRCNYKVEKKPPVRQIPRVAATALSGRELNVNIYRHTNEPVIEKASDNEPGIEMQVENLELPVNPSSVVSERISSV

5-HT2B [1] = target: T2, 5-HT2B (Homo sapiens, UniProt P41595); experiment: 5-HT2B Gq dissociation BRET functional assay; format: cell-based; parameters: expressed in transfected cells; host or cells: HEK293T; settings: for 5-HT2B BRET Eff: normalized to % 5-HT stimulation
Target sequence in this assay (P41595 whole entry): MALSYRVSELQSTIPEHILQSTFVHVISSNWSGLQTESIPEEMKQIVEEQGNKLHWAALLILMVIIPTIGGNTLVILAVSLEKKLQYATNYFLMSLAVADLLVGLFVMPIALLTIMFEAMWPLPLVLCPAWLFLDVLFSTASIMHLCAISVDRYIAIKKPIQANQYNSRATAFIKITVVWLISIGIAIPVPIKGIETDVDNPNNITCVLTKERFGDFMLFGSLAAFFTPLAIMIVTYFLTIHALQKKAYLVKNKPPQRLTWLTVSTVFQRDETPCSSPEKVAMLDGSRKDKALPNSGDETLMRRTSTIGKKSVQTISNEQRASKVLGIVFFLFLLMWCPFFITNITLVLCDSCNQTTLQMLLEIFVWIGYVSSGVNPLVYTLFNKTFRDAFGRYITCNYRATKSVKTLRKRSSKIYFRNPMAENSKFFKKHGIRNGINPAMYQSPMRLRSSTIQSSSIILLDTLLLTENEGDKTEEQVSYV

5-HT2A [2] = target: T3, 5-HT2A (Homo sapiens, UniProt P28223); experiment: 5-HT2A Gq dissociation BRET functional assay; format: cell-based; parameters: expressed in transfected cells; host or cells: HEK293T; settings: for 5-HT2A BRET Eff: normalized to % 5-HT stimulation
T3 sequence (P28223 whole entry): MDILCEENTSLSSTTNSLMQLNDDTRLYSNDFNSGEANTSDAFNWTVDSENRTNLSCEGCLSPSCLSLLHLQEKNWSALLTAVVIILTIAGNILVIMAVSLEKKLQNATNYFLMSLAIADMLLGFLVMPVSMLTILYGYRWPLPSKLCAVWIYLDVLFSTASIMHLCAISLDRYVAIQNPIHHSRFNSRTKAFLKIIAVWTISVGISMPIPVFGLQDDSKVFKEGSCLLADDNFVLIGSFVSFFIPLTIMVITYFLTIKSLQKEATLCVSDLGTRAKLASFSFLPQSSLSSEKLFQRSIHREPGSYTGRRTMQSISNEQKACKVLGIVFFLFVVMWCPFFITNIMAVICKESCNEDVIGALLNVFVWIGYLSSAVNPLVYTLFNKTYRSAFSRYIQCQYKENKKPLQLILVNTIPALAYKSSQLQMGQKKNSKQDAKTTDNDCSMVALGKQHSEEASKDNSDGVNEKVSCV

hepatocyte [3] = experiment: In vitro hepatocyte clearance, mouse; format: in vitro ADME; settings: Mouse
Experimental: (§1) Additional experimentation was performed on compounds 1, W5, and A93. Table 6a, 6b and 6c summarize, among other things, the anticipated hepatic clearance of compounds 1, W5 and A93 respectively, in various species, as specified in Table 6a, 6b and 6c and as determined by calculating the in vitro hepatocyte clearance over time and scaling such rate with such species' hepatocyte count and the anticipated liver blood flow rate in such species.

[4] = In vitro hepatocyte clearance, mouse; format: in vitro ADME; settings: Mouse hepatocytes; for half-life: read-out: In vitro T1/2; for CLint scaled: read-out: Scale-up Clint
Experimental: as §1

hepatocyte [5] = experiment: In vitro hepatocyte clearance, human; format: in vitro ADME; settings: Human
Experimental: as §1

[6] = In vitro hepatocyte clearance, human; format: in vitro ADME; settings: Human hepatocytes; for half-life: read-out: In vitro T1/2; for CLint scaled: read-out: Scale-up Clint
Experimental: as §1

mice = experiment: Head Twitch Response (HTR) in mice; format: in vivo; settings: Mus musculus, 1 h, measured over a 60 minute interval
Experimental: Head Twitch Response (HTR) was assessed using a head-mounted neodymium magnet and a magnetometer detection coil, as described in Halberstadt et al., Psychopharmacology (Berl.), 2013, 227 (4): 727-739. Table 8 below summarizes the ED50 in head twitch (as measured over a 60 minute interval) in mice as a result of Compound 1 as compared to psilocybin.

5-HT1E = 5-HT1E (Homo sapiens, UniProt P28566); experiment: 5-HT receptor activity (Table 3), 5-HT1E; format: cell-based
Chain of 5-HT1E (P28566 whole entry, species assumed): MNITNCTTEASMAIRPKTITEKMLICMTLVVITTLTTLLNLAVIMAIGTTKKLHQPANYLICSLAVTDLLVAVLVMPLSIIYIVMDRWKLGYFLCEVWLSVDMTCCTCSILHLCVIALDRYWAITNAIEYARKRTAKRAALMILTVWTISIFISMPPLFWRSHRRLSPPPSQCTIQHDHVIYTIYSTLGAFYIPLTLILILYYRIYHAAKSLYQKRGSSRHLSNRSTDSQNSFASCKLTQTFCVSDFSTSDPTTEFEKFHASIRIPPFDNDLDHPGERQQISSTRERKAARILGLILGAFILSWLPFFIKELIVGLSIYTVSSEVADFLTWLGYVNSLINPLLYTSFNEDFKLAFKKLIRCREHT

5-HT2A [7] = target: T3, 5-HT2A; experiment: 5-HT receptor activity (Table 3), 5-HT2A; format: cell-based; settings: 5-HT2A, Table 3
5-HT7 = 5-HT7 (Homo sapiens, UniProt P34969); experiment: 5-HT receptor activity (Table 3), 5-HT7; format: cell-based
Chain of 5-HT7 (P34969 whole entry, species assumed): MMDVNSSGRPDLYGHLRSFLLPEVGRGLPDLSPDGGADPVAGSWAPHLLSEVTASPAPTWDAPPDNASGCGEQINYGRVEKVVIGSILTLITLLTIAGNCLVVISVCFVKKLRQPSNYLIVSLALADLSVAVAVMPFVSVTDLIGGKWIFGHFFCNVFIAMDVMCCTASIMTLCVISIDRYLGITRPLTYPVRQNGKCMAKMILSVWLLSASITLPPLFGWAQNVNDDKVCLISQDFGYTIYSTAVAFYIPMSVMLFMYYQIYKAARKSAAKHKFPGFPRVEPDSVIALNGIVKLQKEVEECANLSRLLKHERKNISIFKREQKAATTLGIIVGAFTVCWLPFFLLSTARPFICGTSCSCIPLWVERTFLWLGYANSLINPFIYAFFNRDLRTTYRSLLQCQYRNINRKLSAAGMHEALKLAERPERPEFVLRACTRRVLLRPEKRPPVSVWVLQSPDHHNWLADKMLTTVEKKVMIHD

5-HT1D = 5-HT1D (Homo sapiens, UniProt P28221); experiment: 5-HT receptor activity (Table 3), 5-HT1D; format: cell-based
Chain of 5-HT1D (P28221 whole entry, species assumed): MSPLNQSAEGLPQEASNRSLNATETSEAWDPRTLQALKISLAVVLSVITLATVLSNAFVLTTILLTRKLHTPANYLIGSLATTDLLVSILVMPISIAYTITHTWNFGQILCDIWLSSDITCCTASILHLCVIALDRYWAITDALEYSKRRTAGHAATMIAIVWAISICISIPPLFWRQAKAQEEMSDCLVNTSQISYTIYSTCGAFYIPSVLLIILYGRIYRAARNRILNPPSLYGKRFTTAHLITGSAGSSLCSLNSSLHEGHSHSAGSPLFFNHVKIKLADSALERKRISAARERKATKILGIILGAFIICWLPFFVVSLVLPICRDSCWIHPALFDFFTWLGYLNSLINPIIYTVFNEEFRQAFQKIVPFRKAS

5-HT1B = 5-HT1B (Homo sapiens, UniProt P28222); experiment: 5-HT receptor activity (Table 3), 5-HT1B; format: cell-based
Chain of 5-HT1B (P28222 whole entry, species assumed): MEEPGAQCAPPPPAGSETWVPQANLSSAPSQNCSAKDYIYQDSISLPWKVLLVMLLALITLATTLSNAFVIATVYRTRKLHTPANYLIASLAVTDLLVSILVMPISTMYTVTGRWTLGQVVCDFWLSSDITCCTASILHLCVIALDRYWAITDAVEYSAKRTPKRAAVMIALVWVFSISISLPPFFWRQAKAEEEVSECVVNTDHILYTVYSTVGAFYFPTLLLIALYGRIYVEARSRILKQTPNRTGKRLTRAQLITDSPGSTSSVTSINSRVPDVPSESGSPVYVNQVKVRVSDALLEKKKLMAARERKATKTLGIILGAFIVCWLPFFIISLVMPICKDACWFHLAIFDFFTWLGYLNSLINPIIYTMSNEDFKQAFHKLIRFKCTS

5-HT6 = 5-HT6 (Homo sapiens, UniProt P50406); experiment: 5-HT receptor activity (Table 3), 5-HT6; format: cell-based
Chain of 5-HT6 (P50406 whole entry, species assumed): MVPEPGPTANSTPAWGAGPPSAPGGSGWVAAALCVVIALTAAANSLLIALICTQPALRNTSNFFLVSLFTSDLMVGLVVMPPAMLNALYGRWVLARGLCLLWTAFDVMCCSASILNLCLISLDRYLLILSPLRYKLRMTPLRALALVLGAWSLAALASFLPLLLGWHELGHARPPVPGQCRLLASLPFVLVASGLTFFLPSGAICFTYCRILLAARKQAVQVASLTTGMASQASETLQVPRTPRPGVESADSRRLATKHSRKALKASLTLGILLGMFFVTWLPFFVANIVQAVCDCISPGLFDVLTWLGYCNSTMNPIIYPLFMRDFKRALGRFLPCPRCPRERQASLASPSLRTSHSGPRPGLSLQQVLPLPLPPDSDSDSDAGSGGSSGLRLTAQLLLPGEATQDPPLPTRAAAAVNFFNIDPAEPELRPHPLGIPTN

5-HT1A = target: T4, 5-HT1A (Homo sapiens, UniProt P08908); experiment: 5-HT receptor activity (Table 3), 5-HT1A; format: cell-based
T4 sequence (P08908 1-422): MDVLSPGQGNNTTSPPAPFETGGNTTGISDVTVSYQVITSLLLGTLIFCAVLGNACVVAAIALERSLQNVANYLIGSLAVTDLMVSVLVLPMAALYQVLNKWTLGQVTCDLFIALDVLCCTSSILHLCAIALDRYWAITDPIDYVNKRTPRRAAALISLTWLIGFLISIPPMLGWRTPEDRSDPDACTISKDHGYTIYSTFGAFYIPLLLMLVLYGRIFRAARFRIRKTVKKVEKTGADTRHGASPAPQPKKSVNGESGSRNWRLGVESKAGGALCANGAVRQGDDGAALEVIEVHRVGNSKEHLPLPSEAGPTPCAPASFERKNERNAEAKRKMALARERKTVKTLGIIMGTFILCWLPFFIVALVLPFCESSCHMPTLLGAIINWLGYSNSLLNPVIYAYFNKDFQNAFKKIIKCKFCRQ

5-HT4 = 5-HT4 (Homo sapiens, UniProt Q13639); experiment: 5-HT receptor activity (Table 3), 5-HT4; format: cell-based
Chain of 5-HT4 (Q13639 whole entry, species assumed): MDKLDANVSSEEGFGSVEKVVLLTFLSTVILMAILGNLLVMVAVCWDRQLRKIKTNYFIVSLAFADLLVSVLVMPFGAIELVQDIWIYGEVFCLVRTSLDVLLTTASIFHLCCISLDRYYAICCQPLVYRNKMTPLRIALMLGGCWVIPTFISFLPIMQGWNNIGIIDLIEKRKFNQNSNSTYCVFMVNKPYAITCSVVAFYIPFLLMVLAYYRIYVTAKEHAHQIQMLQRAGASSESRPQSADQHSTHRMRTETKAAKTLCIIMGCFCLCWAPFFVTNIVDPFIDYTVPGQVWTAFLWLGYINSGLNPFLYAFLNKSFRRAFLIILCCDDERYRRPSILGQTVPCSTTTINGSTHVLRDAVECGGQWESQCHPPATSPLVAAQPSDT

5-HT2B [8] = target: T2, 5-HT2B; experiment: 5-HT receptor activity (Table 3), 5-HT2B; format: cell-based; settings: 5-HT2B, Table 3
Target sequence in this assay (P41595 whole entry, species assumed): as the sequence (P41595 whole entry) above

5-HT1F = target: T5, 5-HT1F (Homo sapiens, UniProt P30939); experiment: 5-HT receptor activity (Table 3), 5-HT1F; format: cell-based
T5 sequence (P30939 1-366): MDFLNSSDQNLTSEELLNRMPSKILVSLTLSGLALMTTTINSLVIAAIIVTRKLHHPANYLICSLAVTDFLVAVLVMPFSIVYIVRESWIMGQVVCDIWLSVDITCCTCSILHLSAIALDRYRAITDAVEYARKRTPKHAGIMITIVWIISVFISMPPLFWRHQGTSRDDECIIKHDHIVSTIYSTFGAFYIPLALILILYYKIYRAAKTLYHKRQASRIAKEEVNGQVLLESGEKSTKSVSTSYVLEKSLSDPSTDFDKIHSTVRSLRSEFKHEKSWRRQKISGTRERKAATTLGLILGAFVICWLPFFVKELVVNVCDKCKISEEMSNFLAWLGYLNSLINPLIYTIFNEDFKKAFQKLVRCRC

5-HT5A = 5-HT5A (Homo sapiens, UniProt P47898); experiment: 5-HT receptor activity (Table 3), 5-HT5A; format: cell-based
Chain of 5-HT5A (P47898 whole entry, species assumed): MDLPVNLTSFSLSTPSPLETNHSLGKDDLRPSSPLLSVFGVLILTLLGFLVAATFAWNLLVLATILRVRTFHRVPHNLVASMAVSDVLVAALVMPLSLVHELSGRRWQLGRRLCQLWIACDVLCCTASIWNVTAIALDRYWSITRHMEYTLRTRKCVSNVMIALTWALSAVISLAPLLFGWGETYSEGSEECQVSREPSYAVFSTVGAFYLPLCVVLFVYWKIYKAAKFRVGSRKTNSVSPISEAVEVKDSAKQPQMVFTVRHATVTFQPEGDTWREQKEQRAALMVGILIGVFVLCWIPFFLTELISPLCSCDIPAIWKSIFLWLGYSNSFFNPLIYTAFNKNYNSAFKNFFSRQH

[9] = normalized to % 5-HT stimulation

Row | Compound | 5-HT2B BRET Eff (5-HT2B [1]) [%] | 5-HT2A BRET Eff (5-HT2A [2]) [%] | 5-HT2C BRET Eff (5-HT2C; [9]) [%] | EC50 (5-HT2C) [nM] | EC50 (5-HT2B [1]) [nM] | EC50 (5-HT2A [2]) [nM] | other results
1 | NCCc1c[nH]c2cccc(O)c12 [4-hydroxytryptamine, reference compound] | 100 | 100 | – | – | – | – | 5-HT2C BRET Eff (5-HT2C): 99%
2 | Cc1cccc2c(CCN(C)C)c[nH]c12 [7,N,N-TMT, reference compound] | 36 | 80 | 79 | – | – | – | EC50 (5-HT2B [1]; Gq dissociation BRET, HEK293T, read-out: 5-HT2B BRET EC50): 74.3 nM
3 | Cc1ccc(O)c2c3c([nH]c12)CCN(C)CC3 [Cpd #14 (W5)] | 25 | 89 | 87 | 1.3 | 22.7 | 3.9 | Hepatic Extraction Ratio (E) (hepatocyte [3]): 0.84; Predicted hepatic CL (hepatocyte [3]): 75.80 mL/min/kg; hepatocyte CLint [4]: 40.7 µL/min/1e6 cells; half-life [4]: 0.568 h; CLint scaled [4]: 480 mL/min/kg; Hepatic Extraction Ratio (E) (hepatocyte [5]): 0.13; Predicted hepatic CL (hepatocyte [5]): 2.74 mL/min/kg; hepatocyte CLint [6]: 1.26 µL/min/1e6 cells; half-life [6]: 20.9 h; CLint scaled [6]: 3.22 mL/min/kg
4 | Cc1ccc(O)c2c3c([nH]c12)CCN(Cc1ccccc1O)CC3 [Cpd #18 (A90)] | −2.6 | 76 | 93 | 24 | 2.7 | 31 | –
5 | Cc1cc(F)c(O)c2c3c([nH]c12)CCNCC3 [Cpd #27 (A92)] | 77 | 97 | 101 | 2.8 | 14 | 6.2 | –
6 | Cc1ccc(O)c2c3c([nH]c12)C(C)CNCC3 (centres unmarked) [Cpd #45 (W8)] | 54 | 98 | 99 | 1.2 | 1.3 | 6.4 | –
7 | CN1CCc2c(n(C)c3cccc(O)c23)CC1 [Cpd #64 (A96)] | 46 | 87 | 79 | 6.7 | 90.9 | 15.3 | –
8 | Cn1c2c(c3c(O)cccc31)CCNCC2 [Cpd #65 (A95)] | 70 | 96 | 93 | 2.8 | 40.3 | 5.9 | –
9 | CN1CCc2[nH]c3cccc(O)c3c2CC1 [Cpd #66 (A94)] | 28 | 91 | 89 | 18.8 | 47.9 | 8.1 | –
10 | Oc1cccc2[nH]c3c(c12)CCNCC3 [Cpd #67 (A93)] | 57 | 97 | 94 | 5.7 | 55.7 | 4 | Hepatic Extraction Ratio (E) (hepatocyte [3]): <0.26; Predicted hepatic CL (hepatocyte [3]): <23.60 mL/min/kg; hepatocyte CLint [4]: < 2.71 µL/min/1e6 cells; half-life [4]: > 8.53 h; CLint scaled [4]: < 32 mL/min/kg; Hepatic Extraction Ratio (E) (hepatocyte [5]): <0.25; Predicted hepatic CL (hepatocyte [5]): <5.17 mL/min/kg; hepatocyte CLint [6]: < 2.71 µL/min/1e6 cells; half-life [6]: > 8.53 h; CLint scaled [6]: < 6.89 mL/min/kg
11 | Cc1ccc(O)c2[nH]c3c(c12)CCNCC3 [Pharm-159] | 95 | 96 | 99 | 0.17 | 3 | 3.5 | –
12 | CN(C)CCc1c[nH]c2cccc(OP(=O)(O)O)c12 [Psilocybin, psilocybin, reference compound] | – | – | – | – | – | – | ED50 (mice): 0.38 mg/kg
13 | CN(C)CCc1c[nH]c2cccc(O)c12 [psilocin, reference compound] | 63 | 82 | – | – | – | – | Eff (5-HT1E): 90%; Eff (5-HT2A [7]): 80%; Eff (5-HT7): 86%; Eff (5-HT1D): 102%; Eff (5-HT1B): 94%; Eff (5-HT6): 74%; Eff (5-HT1A): 93%; Eff (5-HT4): 81%; Eff (5-HT2B [8]): 32%; Eff (5-HT1F): 93%; Eff (5-HT5A): 48%
